The target in this test is T1, human β-Secretase (Homo sapiens, UniProt P56817).
T1 construct: The soluble part of the human β-Secretase (AA 1-AA 460) was cloned; Fc domain of IgG1 (C); made in house
As to the kind of experiment: TR-FRET assay (β-secretase enzyme cleavage of (Europium)CEVNLDAEFK(Qsy7) substrate). In kind it is biochemical. The following applies: sBACE-Fc 2.7 μg/ml, substrate 100 nM, pH 4.5, 15 min at RT. The protocol:
The enzyme used in the IGEN Cleavage-, Fluorescent-, TR-FRET- and BiaCore assays is described as follows:
The soluble part of the human β-Secretase (AA 1-AA 460) was cloned into the ASP2-Fc10-1-IRES-GFP-neoK mammalian expression vector. The gene was fused to the Fc domain of IgG1 (affinity tag) and stably cloned into HEK 293 cells. Purified sBACE-Fc is stored in Tris buffer, pH 9.2 and has a purity of 95%.
Enzyme was diluted to 6 μg/mL and the substrate (Europium)CEVNLDAEFK(Qsy7) to 200 nM in reaction buffer (NaAcetate, chaps, triton x-100, EDTA pH 4.5). Compounds were diluted to the desired concentration in dimethyl sulfoxide (final dimethyl sulfoxide concentration in assay is 5%). The assay was done in a Costar 384 well round bottom, low volume, non-binding surface plate (Corning #3676). Enzyme (9 μL) and 1 μL of compound in dimethyl sulfoxide was added to the plate, mixed and pre-incubated for 10 min. Substrate (10 μL) was added and the reaction proceeded in the dark for 15 min at RT. The reaction was stopped with the addition of 7 μl, NaAcetate, pH 9. The fluorescence of the product was measured on a Victor II plate reader with an excitation wavelength of 340 nm and an emission wavelength of 615 nm. The final concentration of the enzyme was 2.7 μg/ml and the final concentration of the substrate was 100 nM (Km of 290 nM). […]
(In general: In TR-FRET formats the signal depends on donor and acceptor labels being close together.)

The term Ki denotes a dissociation constant, usually derived from enzyme kinetics or from competition with a known ligand.

T1 sequence (P56817 22-460): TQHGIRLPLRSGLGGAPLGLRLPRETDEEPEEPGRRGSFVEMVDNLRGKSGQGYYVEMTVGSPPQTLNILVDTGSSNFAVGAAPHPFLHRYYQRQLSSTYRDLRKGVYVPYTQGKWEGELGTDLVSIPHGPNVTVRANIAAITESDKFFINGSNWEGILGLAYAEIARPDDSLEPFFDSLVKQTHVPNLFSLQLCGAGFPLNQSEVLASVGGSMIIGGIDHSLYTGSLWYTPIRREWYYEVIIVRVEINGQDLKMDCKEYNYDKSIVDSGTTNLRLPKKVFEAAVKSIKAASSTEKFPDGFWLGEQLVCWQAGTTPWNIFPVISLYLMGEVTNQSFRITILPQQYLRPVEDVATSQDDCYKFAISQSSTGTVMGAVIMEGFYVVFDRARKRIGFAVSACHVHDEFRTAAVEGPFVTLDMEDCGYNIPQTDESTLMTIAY

Regarding `COc1cccc(-c2cccc(C3(c4ccncc4)N=C(N)c4cccnc43)c2)c1F` (stereo not shown) [Example 23, 7-(2′-Fluoro-3′-methoxybiphenyl-3-yl)-7-pyridin-4-yl-7H-pyrrolo[3,4-b]pyridin-5-amine], the affinity corresponds to a Ki of 88 nM.

For the origin of these results see patent publication US20100324072A1, “PYRROLOPYRIDINE DERIVATIVES AND THEIR USE AS BACE INHIBITORS” (ASTRAZENECA AB, priority 2007, published 2010).
